Reference: US20250250269A1, “HETEROCYCLIC GLP-1 AGONISTS” (Gasherbrum Bio, Inc., priority 2022, published 2025)

Molecular target: T1, GLP-1 Receptor (Homo sapiens, UniProt P43220)
T1 construct: host or cells: HEK293/CRE-Luc (HEK293/GLP1R/CRE-LUC)
Experiment: GLP-1R agonist cAMP stimulation assay (HEK293/GLP1R/CRE-LUC cells, Cisbio cAMP dynamic 2 kit)
Format: cell-based
Settings: HEK293/CRE-Luc cells stably expressing the GLP-1 Receptor, 30 min at 37° C.
Method: Activation of GLP-1 receptor is known to stimulate cyclic AMP (cAMP) production in cells which indicates primary coupling to the Gas subunit of the G protein heterotrimeric complex.
To optimize functional activity directed toward Gas coupling, a HEK293/CRE-Luc cell line developed by HDB stably expressing the GLP-1 Receptor was used. 200× concentration of compound working solutions were prepared (Agilent Technologies Bravo) with ½ log serial dilution in 384-well Echo LDV plate (Labcyte, Cat #LP-0200). […] 200× concentration of compound working solutions were moved to 384-well white low volume plate (Greiner, Cat #784075) using Labcyte ECHO550. 1×10^5 cells/mL HEK293/GLP1R/CRE-LUC (HD Biosciences) cell suspensions prepared with assay buffer [DPBS containing 0.5 mM IBMX (Sigma, Cat #15879) and 0.1% BSA (GENVIEW, Cat #FA016-100g)], 10 μL cell suspensions were added to each well of previous generated assay plate which already contains […] compound at 200×concentration using ThermoFisher Multidrop Combi (1000 cells/well). Seal the plate and incubate at 37° C. with 5% CO2 for 30 min.
After incubation the cAMP assay signal was generated using cAMP dynamic 2 Kit (Cisbio). 5 μL cAMP-d2 working solution was added to each well, followed with 5 μL Anti-cAMP antibody-cryptate working solution added to each well using ThermoFisher Multidrop Combi. Incubate at room temperature for 1 hour protected from light. Read the fluorescence at 665 and 615 nm with Reader PerkinElmer EnVision.

T1 sequence (P43220 24-463, species assumed): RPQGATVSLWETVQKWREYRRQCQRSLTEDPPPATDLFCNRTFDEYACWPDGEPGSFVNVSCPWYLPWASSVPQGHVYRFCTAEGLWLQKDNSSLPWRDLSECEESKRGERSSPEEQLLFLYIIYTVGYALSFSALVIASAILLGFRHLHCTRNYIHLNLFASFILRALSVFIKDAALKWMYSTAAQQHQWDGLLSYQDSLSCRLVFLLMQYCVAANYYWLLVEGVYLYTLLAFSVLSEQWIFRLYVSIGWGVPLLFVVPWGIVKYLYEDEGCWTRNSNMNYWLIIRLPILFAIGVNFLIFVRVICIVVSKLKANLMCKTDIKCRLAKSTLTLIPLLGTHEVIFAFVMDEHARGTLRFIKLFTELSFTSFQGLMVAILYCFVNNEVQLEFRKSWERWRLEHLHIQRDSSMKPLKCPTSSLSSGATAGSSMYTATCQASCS

Row | Structure (SMILES) | EC50 [nM]
1 | Fc1cc(Cl)ccc1COc1cccc([C@H]2CCN(Cc3nc4cc(-c5nnc(C(F)(F)F)[nH]5)ncc4n3C[C@@H]3CCO3)C[C@@H]2F)n1 (single isomer, unassigned) [Compound 58] | < 1
2 | Fc1cc(Cl)ccc1COc1cccc([C@@H]2CCN(Cc3nc4cc(-c5nnc(C(F)(F)F)[nH]5)ncc4n3C[C@@H]3CCO3)C[C@H]2F)n1 (single isomer, unassigned) [Compound 59] | < 1
3 | C[C@]1(c2ccc(Cl)cn2)Oc2cccc([C@H]3CCN(Cc4nc5cc(-c6nnc(C(F)(F)F)[nH]6)cnc5n4C[C@@H]4CCO4)C[C@@H]3F)c2O1 (single isomer, unassigned) [Compound 60] | < 1
4 | C[C@]1(c2ccc(Cl)cn2)Oc2cccc([C@@H]3CCN(Cc4nc5cc(-c6nnc(C(F)(F)F)[nH]6)cnc5n4C[C@@H]4CCO4)C[C@H]3F)c2O1 (single isomer, unassigned) [Compound 61] | < 1
5 | C[C@]1(c2ccc(Cl)cn2)Oc2cccc([C@H]3CCN(Cc4nc5cc(-c6nnc(C(F)(F)F)[nH]6)ncc5n4C[C@@H]4CCO4)C[C@@H]3F)c2O1 (single isomer, unassigned) [Compound 62] | < 1
6 | C[C@]1(c2ccc(Cl)cn2)Oc2cccc([C@@H]3CCN(Cc4nc5cc(-c6nnc(C(F)(F)F)[nH]6)ncc5n4C[C@@H]4CCO4)C[C@H]3F)c2O1 (single isomer, unassigned) [Compound 63] | < 1
7 | Fc1ccc(COc2cccc(C3CCN(Cc4nc5cc(-c6nnc(C(F)(F)F)[nH]6)ncc5n4C[C@@H]4CCO4)CC3)n2)c(F)c1 [Compound 1, 2-[(2,4-difluorophenyl)methoxy]-6-{1-[(3-{[(2S)-oxetan-2-yl]methyl}-6-[5-(trifluoromethyl)-4H-1,2,4-triazol-3-yl]-3H-imidazo[4,5-c]pyridin-2-yl)methyl]piperidin-4-yl}pyridine] | < 1
8 | COc1cc(Cl)ccc1COc1cccc(C2CCN(Cc3nc4cc(-c5nnc(C(F)(F)F)[nH]5)ncc4n3C[C@@H]3CCO3)CC2)n1 [Compound 2, (S)-2-((4-(6-((4-chloro-2-methoxybenzyl)oxy)pyridin-2-yl)piperidin-1-yl)methyl)-3-(oxetan-2-ylmethyl)-6-(5-(trifluoromethyl)-4H-1,2,4-triazol-3-yl)-3H-imidazo[4,5-c]pyridine] | < 1
9 | COc1c(F)ccc(COc2cccc(C3CCN(Cc4nc5cc(-c6nnc(C(F)(F)F)[nH]6)ncc5n4C[C@@H]4CCO4)CC3)n2)c1F [Compound 3, (S)-2-((4-(6-((2,4-difluoro-3-methoxybenzyl)oxy)pyridin-2-yl)piperidin-1-yl)methyl)-3-(oxetan-2-ylmethyl)-6-(5-(trifluoromethyl)-4H-1,2,4-triazol-3-yl)-3H-imidazo[4,5-c]pyridine] | < 1
10 | Cc1c(Cl)ccc(COc2cccc(C3CCN(Cc4nc5cc(-c6nnc(C(F)(F)F)[nH]6)ncc5n4C[C@@H]4CCO4)CC3)n2)c1F [Compound 4, 2-[(4-chloro-2-fluoro-3-methylphenyl)methoxy]-6-{1-[(3-{[(2S)-oxetan-2-yl]methyl}-6-[5-(trifluoromethyl)-4H-1,2,4-triazol-3-yl]-3H-imidazo[4,5-c]pyridin-2-yl)methyl]piperidin-4-yl}pyridine] | < 1
11 | Cc1c(F)ccc(COc2cccc(C3CCN(Cc4nc5cc(-c6nnc(C(F)(F)F)[nH]6)ncc5n4C[C@@H]4CCO4)CC3)n2)c1F [Compound 5, 2-[(2,4-difluoro-3-methylphenyl)methoxy]-6-{1-[(3-{[(2S)-oxetan-2-yl]methyl}-6-[5-(trifluoromethyl)-4H-1,2,4-triazol-3-yl]-3H-imidazo[4,5-c]pyridin-2-yl)methyl]piperidin-4-yl}pyridine] | < 1
12 | Fc1cc(Cl)cc(F)c1COc1cccc(C2CCN(Cc3nc4cc(-c5nnc(C(F)(F)F)[nH]5)ncc4n3C[C@@H]3CCO3)CC2)n1 [Compound 6, (S)-2-((4-(6-((4-chloro-2,6-difluorobenzyl)oxy)pyridin-2-yl)piperidin-1-yl)methyl)-3-(oxetan-2-ylmethyl)-6-(5-(trifluoromethyl)-4H-1,2,4-triazol-3-yl)-3H-imidazo[4,5-c]pyridine] | < 1
13 | FC(F)Oc1ccc(COc2cccc(C3CCN(Cc4nc5cc(-c6nnc(C(F)(F)F)[nH]6)ncc5n4C[C@@H]4CCO4)CC3)n2)cn1 [Compound 7, 2-{[6-(difluoromethoxy)pyridin-3-yl]methoxy}-6-{1-[(3-{[(2S)-oxetan-2-yl]methyl}-6-[5-(trifluoromethyl)-4H-1,2,4-triazol-3-yl]-3H-imidazo[4,5-c]pyridin-2-yl)methyl]piperidin-4-yl}pyridine] | < 1
14 | FC(F)Oc1cc(COc2cccc(C3CCN(Cc4nc5cc(-c6nnc(C(F)(F)F)[nH]6)ncc5n4C[C@@H]4CCO4)CC3)n2)ccn1 [Compound 8, (S)-2-((4-(6-((2-(difluoromethoxy)pyridin-4-yl)methoxy)pyridin-2-yl)piperidin-1-yl)methyl)-3-(oxetan-2-ylmethyl)-6-(5-(trifluoromethyl)-4H-1,2,4-triazol-3-yl)-3H-imidazo[4,5-c]pyridine] | < 1
15 | FC(F)Oc1cccc(COc2cccc(C3CCN(Cc4nc5cc(-c6nnc(C(F)(F)F)[nH]6)ncc5n4C[C@@H]4CCO4)CC3)n2)n1 [Compound 9, (S)-2-((4-(6-((6-(difluoromethoxy)pyridin-2-yl)methoxy)pyridin-2-yl)piperidin-1-yl)methyl)-3-(oxetan-2-ylmethyl)-6-(5-(trifluoromethyl)-4H-1,2,4-triazol-3-yl)-3H-imidazo[4,5-c]pyridine] | < 1
16 | FC(F)(F)Oc1cccc(COc2cccc(C3CCN(Cc4nc5cc(-c6nnc(C(F)(F)F)[nH]6)ncc5n4C[C@@H]4CCO4)CC3)n2)n1 [Compound 10, (S)-3-(oxetan-2-ylmethyl)-2-((4-(6-((6-(trifluoromethoxy)pyridin-2-yl)methoxy)pyridin-2-yl)piperidin-1-yl)methyl)-6-(5-(trifluoromethyl)-4H-1,2,4-triazol-3-yl)-3H-imidazo[4,5-c]pyridine] | < 1
17 | FC(F)(F)Oc1cccc(COc2cccc(C3CCN(Cc4nc5cc(-c6nnc(C(F)(F)F)[nH]6)ncc5n4C[C@@H]4CCO4)CC3)n2)c1 [Compound 11, (S)-3-(oxetan-2-ylmethyl)-2-((4-(6-((3-(trifluoromethoxy)benzyl)oxy)pyridin-2-yl)piperidin-1-yl)methyl)-6-(5-(trifluoromethyl)-4H-1,2,4-triazol-3-yl)-3H-imidazo[4,5-c]pyridine] | < 1
18 | Cc1ccc(COc2cccc(C3CCN(Cc4nc5cc(-c6nnc(C(F)(F)F)[nH]6)ncc5n4C[C@@H]4CCO4)CC3)n2)nc1OC(F)F [Compound 12, (S)-2-((4-(6-((6-(difluoromethoxy)-5-methylpyridin-2-yl)methoxy)pyridin-2-yl)piperidin-1-yl)methyl)-3-(oxetan-2-ylmethyl)-6-(5-(trifluoromethyl)-4H-1,2,4-triazol-3-yl)-3H-imidazo[4,5-c]pyridine] | < 1
19 | FC(F)Oc1nc(COc2cccc(C3CCN(Cc4nc5cc(-c6nnc(C(F)(F)F)[nH]6)ncc5n4C[C@@H]4CCO4)CC3)n2)ccc1Cl [Compound 13, (S)-2-((4-(6-((5-chloro-6-(difluoromethoxy)pyridin-2-yl)methoxy)pyridin-2-yl)piperidin-1-yl)methyl)-3-(oxetan-2-ylmethyl)-6-(5-(trifluoromethyl)-4H-1,2,4-triazol-3-yl)-3H-imidazo[4,5-c]pyridine] | < 1
20 | Fc1ccc(COc2cccc(C3CCN(Cc4nc5cc(-c6nnc(C(F)(F)F)[nH]6)ncc5n4C[C@@H]4CCO4)CC3)n2)nc1OC(F)F [Compound 14, (S)-2-((4-(6-((6-(difluoromethoxy)-5-fluoropyridin-2-yl)methoxy)pyridin-2-yl)piperidin-1-yl)methyl)-3-(oxetan-2-ylmethyl)-6-(5-(trifluoromethyl)-4H-1,2,4-triazol-3-yl)-3H-imidazo[4,5-c]pyridine] | < 1
21 | Cc1ccc(COc2cccc(C3CCN(Cc4nc5cc(-c6nnc(C(F)(F)F)[nH]6)ncc5n4C[C@@H]4CCO4)CC3)n2)c(OC(F)F)n1 [Compound 15, (S)-2-((4-(6-((2-(difluoromethoxy)-6-methylpyridin-3-yl)methoxy)pyridin-2-yl)piperidin-1-yl)methyl)-3-(oxetan-2-ylmethyl)-6-(5-(trifluoromethyl)-4H-1,2,4-triazol-3-yl)-3H-imidazo[4,5-c]pyridine] | < 1
22 | FC(F)(F)c1nnc(-c2cc3nc(CN4CCC(c5cccc(OCc6ccc(Cl)c7c6OCO7)n5)CC4)n(C[C@@H]4CCO4)c3cn2)[nH]1 [Compound 16, (S)-2-((4-(6-((7-chlorobenzo[d][1,3]dioxol-4-yl)methoxy)pyridin-2-yl)piperidin-1-yl)methyl)-3-(oxetan-2-ylmethyl)-6-(5-(trifluoromethyl)-4H-1,2,4-triazol-3-yl)-3H-imidazo[4,5-c]pyridine] | < 1
